Test results: PubChem BioAssay AID1552 (Sanford-Burnham Center for Chemical Genomics, 2009)
Active and inactive are the calls of the source. No rule for the calls is given here.

The molecules below were run against Ubiquitin-conjugating enzyme E2 N (Homo sapiens) (UniProt P61088) (assay: NMR detection of UBE2N ligand binding – biophysical, purified protein (AID 1552)). Details: NMR binding to purified UBE2N.
Ubiquitin-conjugating enzyme E2 N (Homo sapiens), sequence (P61088 whole entry, looked up): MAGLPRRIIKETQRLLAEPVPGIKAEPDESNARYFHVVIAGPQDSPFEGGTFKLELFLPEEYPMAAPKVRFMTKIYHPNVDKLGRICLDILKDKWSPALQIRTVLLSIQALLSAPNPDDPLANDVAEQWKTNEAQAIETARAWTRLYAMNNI

Row | SMILES | Kd
1 | NC(=O)Cc1nc(-c2ccccc2)cs1 | > 4 mM (inactive)
2 | CC(=O)NC(O)C(=O)c1ccccc1 (centres undefined) | > 4 mM (inactive)
3 | CCCCCCCCCCCCCc1ccco1 | > 4 mM (inactive)
4 | CSc1nc(-c2ccccc2)ccc1C(N)=O | > 4 mM (inactive)
5 | CC(=O)c1cccc(NC(=O)Nc2c(C)nn(C)c2C)c1 | > 4 mM (inactive)
6 | Cc1occc1C(=O)Nc1ccc2c(c1)CCC2 | > 4 mM (inactive)
7 | CCP(=O)(CC)c1cccc(C)c1 | > 4 mM (inactive)
8 | CN1CCN(c2nc3c(c(=O)[nH]2)CCCC3)CC1 | > 4 mM (inactive)
9 | COCC(=O)NC1CC(C)(C)NC(C)(C)C1 | > 4 mM (inactive)
10 | CC(=O)Nc1ccc(-c2nc(C)c(C(C)=O)n2O)cc1 | > 4 mM (inactive)
11 | CNC(=S)Nc1ncn(Cc2cccc(F)c2)n1 | > 4 mM (inactive)
12 | CSc1nc2[nH]ncc2c(=O)[nH]1 | > 4 mM (inactive)
13 | Cc1oc(-c2ccccc2)cc1C(N)=O | > 4 mM (inactive)
14 | Nc1ccc2c(c1)S(=O)(=O)C=C2 | > 4 mM (inactive)
15 | Nc1ccccc1C(=O)CC(N)C(=O)O (centres undefined) | > 4 mM (inactive)
16 | CC(=O)c1cccc(NC2=NCC(C)(C)S2)c1 | > 4 mM (inactive)
17 | O=C(NN1C(=O)c2ccccc2C1=O)c1cccs1 | > 4 mM (inactive)
18 | COc1ccc(Cl)cc1-c1nc(-c2ccncc2)no1 | > 4 mM (inactive)
19 | COc1cccc(NC(=O)c2ncn[nH]2)c1 | > 4 mM (inactive)
20 | c1ccc(CSc2ncccn2)cc1 | > 4 mM (inactive)
21 | CCOC(=O)c1c(C)nc2ccccn12 | > 4 mM (inactive)
22 | Cc1nnsc1-c1onc(C)c1C(=O)O | > 4 mM (inactive)

Row | SMILES | Kd
23 | COc1cc(OC)c2c(c1Cl)OC1(C2=O)C(O)=CC(=O)CC1C (centres undefined) | > 4 mM (inactive)
24 | O=c1c(-c2ccccc2)coc2cc(O)cc(O)c12 | > 4 mM (inactive)
25 | COc1ccc([C@@H]2CC(=O)c3c(O)cc(O[C@@H]4O[C@H](CO[C@H]5O[C@@H](C)[C@H](O)[C@@H](O)[C@H]5O)[C@@H](O)[C@H](O)[C@H]4O)cc3O2)cc1O | > 4 mM (inactive)
26 | CC(=O)O[C@@H]1CC2C(C)(C)C=CC(=O)[C@]2(C)C2CC[C@@]3(C)[C@H](c4ccoc4)OC(=O)C4OC43[C@@]21C (some centres undefined) | > 4 mM (inactive)
27 | CC(=O)Nc1ccc(N2CCOCC2)cc1 | > 4 mM (inactive)
28 | CSc1ccn(CCC(=O)O)c(=O)n1 | > 4 mM (inactive)
29 | O=c1ccn(Cc2ccccc2)c(=O)n1Cc1ccccc1 | > 4 mM (inactive)
30 | O=C(NCc1ccco1)c1nc2ncccn2n1 | > 4 mM (inactive)
31 | CCc1ccccc1NC(=O)c1ccoc1C | > 4 mM (inactive)
32 | CC(=O)O[C@@H]1CC2C(C)(C)C(=O)C3OC3[C@]2(C)C2CC[C@@]3(C)[C@H](c4ccoc4)OC(=O)C4OC43[C@@]21C (some centres undefined) | > 4 mM (inactive)
33 | COc1ccc(-c2cc(=O)c3c(O)c(OC)c(O[C@H]4O[C@H](CO[C@@H]5O[C@@H](C)[C@H](O)[C@@H](O)[C@H]5O)[C@@H](O)[C@H](O)[C@H]4O)cc3o2)cc1 | > 4 mM (inactive)
34 | COc1ccc(-c2ccc(OC)cc2C(=O)O)cc1 | > 4 mM (inactive)
35 | S=C(Cc1cccnc1)N1CCOCC1 | > 4 mM (inactive)
36 | CC(=O)Nc1cccc(-c2nc3ccccc3c(=O)o2)c1 | > 4 mM (inactive)
37 | O=c1c(-c2ccco2)[n+]([O-])c2ccccc2n1O | > 4 mM (inactive)
38 | Cc1csc(CCc2nc(C)cs2)n1 | > 4 mM (inactive)
39 | COc1ccc2c(c1)OCC(Cc1ccc(OC)c(OC(C)=O)c1)C2=O (centres undefined) | > 4 mM (inactive)
40 | Cc1cc(NC(=O)c2ccccc2C(=O)O)no1 | > 4 mM (inactive)
41 | CSc1nn(-c2ccccc2)c(N)c1C#N | > 4 mM (inactive)
42 | O=C(NCc1ccncc1)c1cccc(F)c1 | > 4 mM (inactive)
43 | CC1(C)Cc2c(C#N)c(N)n(-c3ccccc3)c(=O)c2CO1 | > 4 mM (inactive)
44 | CC(=O)NC(O)C(=O)c1cccs1 (centres undefined) | > 4 mM (inactive)
